Counter-ions that a name gives are not always drawn.

For one molecule, solubility results are on record in patent US9090631B2, “Process for purifying cefotiam hydrochloride” (HAINAN LINGKANG PHARMACEUTICAL CO., LTD., priority 2011, dated 2015).

This data set can be described thus: Solubility of cefotiam hydrochloride in recrystallization solvents. Type of data set: physicochemical. From the text: The solubility of cefotiam hydrochloride is great in water but very small in ethanol, and even smaller in acetone. A mixture of water and ethanol or a mixture of water and acetone is used as the solvent to recrystallize cefotiam hydrochloride.

As to `CN(C)CCn1nnnc1SCC1=C(C(=O)O)N2C(=O)[C@@H](NC(=O)Cc3csc(N)n3)[C@H]2SC1` [cefotiam hydrochloride, (6R,7R)-7-[[(2-amino-4-thiazolyl)acetyl]amino]-3-[[1-[2-(dimethylamino)ethyl]-1H-tetrazol-5-yl]thiomethyl]-8-oxo-5-thia-1-azabicyclo[4,2,0]oct-2-ene-2-carboxylic acid dihydrochloride], the solubility result by setting is: (in ethanol) “very small”; (in water) “great”.
